These results are taken from ChEMBL document CHEMBL3045600, “Synthesis and Fungicidal Activities of Phenoxyphenyl Alkoxyiminoacetamide Derivatives” (J Pestic Sci, 1998).

Holding throughout (type): functional
Assay [1] has as its system Thanatephorus cucumeris. In words: Fungicidal activity against Thanatephorus cucumeris assessed as rice sheath blight disease control at 31.3 ppm foliar application for 24 hr before inoculation at 26 +- 2 measured after 5 days by preventive manner.
The subject of assay [2] is Thanatephorus cucumeris. In words: Fungicidal activity against Thanatephorus cucumeris assessed as rice sheath blight disease control at 7.8 ppm foliar application for 24 hr before inoculation at 26 +- 2 measured after 5 days by preventive manner.
For assay [3], the system named is Thanatephorus cucumeris. In words: Fungicidal activity against Thanatephorus cucumeris assessed as rice sheath blight disease control at 2 ppm foliar application for 24 hr before inoculation at 26 +- 2 measured after 5 days by preventive manner.
Assay [4] has as its system Pseudoperonospora cubensis. In words: Fungicidal activity against Pseudoperonospora cubensis assessed as cucumber downy mildew disease control at 125 ppm foliar application 24 hr before inoculation on upper surface of leaf by preventive manner.
The subject of assay [5] is Pseudoperonospora cubensis. In words: Fungicidal activity against Pseudoperonospora cubensis assessed as cucumber downy mildew disease control at 31.3 ppm foliar application 24 hr before inoculation on upper surface of leaf by preventive manner.
The subject of assay [6] is Pseudoperonospora cubensis. In words: Fungicidal activity against Pseudoperonospora cubensis assessed as cucumber downy mildew disease control at 7.8 ppm foliar application 24 hr before inoculation on upper surface of leaf by preventive manner.
For assay [7], the system named is Pseudoperonospora cubensis. In words: Fungicidal activity against Pseudoperonospora cubensis assessed as cucumber downy mildew disease control at 2 ppm foliar application 24 hr before inoculation on upper surface of leaf by preventive manner.
The test system of assay [8] is Botrytis cinerea. In words: Fungicidal activity against Botryotinia fuckeliana assessed as cucumber gray mold disease control at 125 ppm foliar application 24 hr before inoculation at 22 +/- 2 degC measured after 3 days by preventive manner.
For assay [9], the system named is Botrytis cinerea. In words: Fungicidal activity against Botryotinia fuckeliana assessed as cucumber gray mold disease control at 31.3 ppm foliar application 24 hr before inoculation at 22 +/- 2 degC measured after 3 days by preventive manner.
The subject of assay [10] is Botrytis cinerea. In words: Fungicidal activity against Botryotinia fuckeliana assessed as cucumber gray mold disease control at 7.8 ppm foliar application 24 hr before inoculation at 22 +/- 2 degC measured after 3 days by preventive manner.
In assay [11] the test system is Botrytis cinerea. In words: Fungicidal activity against Botryotinia fuckeliana assessed as cucumber gray mold disease control at 2 ppm foliar application 24 hr before inoculation at 22 +/- 2 degC measured after 3 days by preventive manner.
The subject of assay [12] is Podosphaera fuliginea. In words: Fungicidal activity against Podosphaera fuliginea assessed as cucumber powdery mildew control under greenhouse at 125 ppm foliar application 24 hr before inoculation on upper surface of leaf at 23 +/- 2 degC by preventive manner.
The test system of assay [13] is Podosphaera fuliginea. In words: Fungicidal activity against Podosphaera fuliginea assessed as cucumber powdery mildew control under greenhouse at 31.3 ppm foliar application 24 hr before inoculation on upper surface of leaf at 23 +/- 2 degC by preventive manner.
For assay [14], the system named is Podosphaera fuliginea. In words: Fungicidal activity against Podosphaera fuliginea assessed as cucumber powdery mildew control under greenhouse at 7.8 ppm foliar application 24 hr before inoculation on upper surface of leaf at 23 +/- 2 degC by preventive manner.
Assay [15] has as its system Podosphaera fuliginea. In words: Fungicidal activity against Podosphaera fuliginea assessed as cucumber powdery mildew control under greenhouse at 2 ppm foliar application 24 hr before inoculation on upper surface of leaf at 23 +/- 2 degC by preventive manner.
The test system of assay [16] is Thanatephorus cucumeris. In words: Fungicidal activity against Thanatephorus cucumeris assessed as rice sheath blight disease control at 125 ppm foliar application for 24 hr before inoculation at 26 +- 2 measured after 5 days by preventive manner.
The test system of assay [17] is Podosphaera fuliginea. In words: Fungicidal activity against Podosphaera fuliginea assessed as cucumber powdery mildew control under greenhouse at 7.8 ppm foliar application 24 hr after inoculation on upper surface of leaf at 23 +/- 2 degC by curative manner.
Assay [18] has as its system Podosphaera fuliginea. In words: Fungicidal activity against Podosphaera fuliginea assessed as cucumber powdery mildew control under greenhouse at 2 ppm foliar application 24 hr after inoculation on upper surface of leaf at 23 +/- 2 degC by curative manner.
The test system of assay [19] is Pyricularia oryzae. In words: Fungicidal activity against Magnaporthe oryzae assessed as rice blast disease control at 10 ppm submerged application measured after 7 days.
The subject of assay [20] is Pyricularia oryzae. In words: Fungicidal activity against Magnaporthe oryzae assessed as rice blast disease control at 2.5 ppm submerged application measured after 7 days.
Assay [21] concerns Pyricularia oryzae. In words: Fungicidal activity against Magnaporthe oryzae assessed as rice blast disease control at 0.63 ppm submerged application measured after 7 days.
The subject of assay [22] is Pyricularia oryzae. In words: Fungicidal activity against Magnaporthe oryzae assessed as rice blast disease control at 0.16 ppm submerged application measured after 7 days.
Assay [23] concerns Podosphaera fuliginea. In words: Fungicidal activity against Podosphaera fuliginea assessed as cucumber powdery mildew control under greenhouse at 125 ppm foliar application 24 hr after inoculation on upper surface of leaf at 23 +/- 2 degC by curative manner.
The test system of assay [24] is Podosphaera fuliginea. In words: Fungicidal activity against Podosphaera fuliginea assessed as cucumber powdery mildew control under greenhouse at 31.3 ppm foliar application 24 hr after inoculation on upper surface of leaf at 23 +/- 2 degC by curative manner.
The test system of assay [25] is Botrytis cinerea. In words: Fungicidal activity against Botryotinia fuckeliana assessed as cucumber gray mold disease control at 31.3 ppm foliar application 24 hr after inoculation at 22 +/- 2 degC measured after 3 days by curative manner.
Assay [26] relates to Botrytis cinerea. In words: Fungicidal activity against Botryotinia fuckeliana assessed as cucumber gray mold disease control at 7.8 ppm foliar application 24 hr after inoculation at 22 +/- 2 degC measured after 3 days by curative manner.
The subject of assay [27] is Botrytis cinerea. In words: Fungicidal activity against Botryotinia fuckeliana assessed as cucumber gray mold disease control at 2 ppm foliar application 24 hr after inoculation at 22 +/- 2 degC measured after 3 days by curative manner.
For assay [28], the system named is Pseudoperonospora cubensis. In words: Fungicidal activity against Pseudoperonospora cubensis assessed as cucumber downy mildew disease control at 125 ppm foliar application 24 hr after inoculation on upper surface of leaf by curative manner.
Assay [29] concerns Pseudoperonospora cubensis. In words: Fungicidal activity against Pseudoperonospora cubensis assessed as cucumber downy mildew disease control at 31.3 ppm foliar application 24 hr after inoculation on upper surface of leaf by curative manner.
For assay [30], the system named is Pseudoperonospora cubensis. In words: Fungicidal activity against Pseudoperonospora cubensis assessed as cucumber downy mildew disease control at 7.8 ppm foliar application 24 hr after inoculation on upper surface of leaf by curative manner.
The test system of assay [31] is Pseudoperonospora cubensis. In words: Fungicidal activity against Pseudoperonospora cubensis assessed as cucumber downy mildew disease control at 2 ppm foliar application 24 hr after inoculation on upper surface of leaf by curative manner.
In assay [32] the test system is Botrytis cinerea. In words: Fungicidal activity against Botryotinia fuckeliana assessed as cucumber gray mold disease control at 125 ppm foliar application 24 hr after inoculation at 22 +/- 2 degC measured after 3 days by curative manner.

As for `CNC(=O)/C(=N/OC)c1cc(C(F)(F)F)ccc1Oc1ccccc1`, the Activity (in the assay on Thanatephorus cucumeris [1]; with Thanatephorus cucumeris [2]; in the assay with Thanatephorus cucumeris [3]; in assay [4]; in [5]; in assay [6]) was below 70% each time. The Activity (in assay [7]; in the assay with Botrytis cinerea [8]; with Botrytis cinerea [9]; in the assay with Botrytis cinerea [10]; in the assay with Botrytis cinerea [11]; in the assay with Podosphaera fuliginea [12]) was below 70% throughout. The Activity in the assay on Podosphaera fuliginea [13], in the assay on Podosphaera fuliginea [14], in the assay with Podosphaera fuliginea [15] and with Thanatephorus cucumeris [16] was below 70% throughout.
Regarding `CNC(=O)/C(=N/OC)c1cc([Si](C)(C)C)ccc1Oc1ccccc1`, the Activity (in the assay with Thanatephorus cucumeris [1]; with Thanatephorus cucumeris [2]; with Thanatephorus cucumeris [3]; in assay [4]; in assay [5]; in assay [6]) was below 70% each time. Also, the Activity (in [7]; with Botrytis cinerea [8]; in the assay with Botrytis cinerea [9]; in the assay with Botrytis cinerea [10]; in the assay on Botrytis cinerea [11]; in the assay with Podosphaera fuliginea [12]) was below 70% in each case. For the same compound, the Activity with Podosphaera fuliginea [13], in the assay on Podosphaera fuliginea [14], in the assay with Podosphaera fuliginea [15] and in the assay with Thanatephorus cucumeris [16] was below 70% in each case.
Take `CNC(=O)/C(=N/OC)c1ccccc1Oc1ccc(OCc2ccccc2)cc1`: the Activity in the assay with Thanatephorus cucumeris [1] is recorded as below 70%; in the assay on Thanatephorus cucumeris [2], below 70%; with Thanatephorus cucumeris [3] it was below 70%; in the assay with Podosphaera fuliginea [17], below 50%; with Podosphaera fuliginea [18], below 50%; in the assay with Pyricularia oryzae [19] it was 50%. In addition, the Activity in the assay on Pyricularia oryzae [20] was 50%; in the assay with Pyricularia oryzae [21] it was 50%; in the assay with Pyricularia oryzae [22], 50%; in assay [4], below 70%; in [5], below 70%; in assay [6] it was below 70%. Also, the Activity (in [7]; in the assay on Botrytis cinerea [8]; in the assay on Botrytis cinerea [9]; in the assay with Botrytis cinerea [10]; in the assay on Botrytis cinerea [11]; in the assay on Podosphaera fuliginea [12]) was below 70% in each case. The Activity with Podosphaera fuliginea [13] was below 70%; in the assay on Podosphaera fuliginea [14] it was below 70%; in the assay with Podosphaera fuliginea [15] it was below 70%; with Thanatephorus cucumeris [16] it was below 70%; with Podosphaera fuliginea [23], below 50%; in the assay on Podosphaera fuliginea [24], below 50%.
Regarding `CNC(=O)/C(=N/OC)c1cccc([N+](=O)[O-])c1Oc1ccccc1`, the Activity (in the assay on Thanatephorus cucumeris [1]; in the assay on Thanatephorus cucumeris [2]; in the assay with Thanatephorus cucumeris [3]; in assay [4]; in assay [5]; in assay [6]) was below 70% in each case. In addition, the Activity (in assay [7]; in the assay on Botrytis cinerea [8]; with Botrytis cinerea [9]; with Botrytis cinerea [10]; in the assay on Botrytis cinerea [11]; with Podosphaera fuliginea [12]) was below 70% each time. In addition, the Activity with Podosphaera fuliginea [13], in the assay on Podosphaera fuliginea [14], in the assay on Podosphaera fuliginea [15] and in the assay with Thanatephorus cucumeris [16] was below 70% throughout.
For `CNC(=O)/C(=N/OC)c1ccccc1Oc1cccc(C)c1`, the Activity is recorded as 70% in the assay with Thanatephorus cucumeris [1]; 70% in the assay with Thanatephorus cucumeris [2]; 70% with Thanatephorus cucumeris [3]; 50% in the assay on Podosphaera fuliginea [17]; 50% in the assay with Podosphaera fuliginea [18]; 50% in the assay with Pyricularia oryzae [19]. Further, the Activity in the assay with Pyricularia oryzae [20] is recorded as 50%; in the assay with Pyricularia oryzae [21] it was 50%; in the assay with Pyricularia oryzae [22] it was 50%; in assay [4], 70%; in [5], 70%; in assay [6] it was 70%. Moreover, the Activity (in assay [7]; with Podosphaera fuliginea [12]; with Podosphaera fuliginea [13]; in the assay on Podosphaera fuliginea [14]; in the assay on Podosphaera fuliginea [15]; in the assay on Thanatephorus cucumeris [16]) was 70% throughout. Further, the Activity (in the assay on Botrytis cinerea [25]; with Botrytis cinerea [26]; in the assay on Botrytis cinerea [27]; in the assay with Podosphaera fuliginea [23]; in the assay on Podosphaera fuliginea [24]; in [28]) was 50% throughout. The Activity (in [29]; in assay [30]; in assay [31]; in the assay on Botrytis cinerea [32]) was 50% in each case.
Consider `C#CCOc1cccc(Oc2ccccc2/C(=N\OC)C(=O)NC)c1`, for which the Activity in the assay on Thanatephorus cucumeris [1] was 70%; in the assay with Thanatephorus cucumeris [2] it was 70%; with Thanatephorus cucumeris [3] it was 70%; in the assay with Podosphaera fuliginea [17], below 50%; in the assay with Podosphaera fuliginea [18], below 50%; in the assay on Pyricularia oryzae [19] it was 50%. For the same compound, the Activity amounted to 50% in the assay on Pyricularia oryzae [20]; 50% with Pyricularia oryzae [21]; 50% with Pyricularia oryzae [22]; 70% in assay [4]; 70% in assay [5]; 70% in assay [6]. In addition, the Activity (in [7]; in the assay on Podosphaera fuliginea [12]; in the assay on Podosphaera fuliginea [13]; in the assay on Podosphaera fuliginea [14]; in the assay on Podosphaera fuliginea [15]; in the assay with Thanatephorus cucumeris [16]) was 70% in each case. For the same compound, the Activity in the assay with Botrytis cinerea [25] is 50%; in the assay on Botrytis cinerea [26], 50%; in the assay with Botrytis cinerea [27], 50%; in the assay with Podosphaera fuliginea [23] it was below 50%; with Podosphaera fuliginea [24], below 50%; in assay [28], below 50%. Moreover, the Activity in assay [29] is below 50%; in [30], below 50%; in assay [31] it was below 50%; in the assay with Botrytis cinerea [32], 50%.
